The subject of one assay is TNF-α. As to the kind of experiment: In Vitro Study: Inhibition of LPS-Induced TNF-α Production From the Murine Cell Line WEHI-265. Type of assay: cell-based. As to conditions: for inhibition at 10 µM: Mus musculus, WEHI-265 cells, LPS, 20-24 hours. The method, then: This test procedure is a standard test used to determine anti-TNF-α activity and to evaluate the usefulness of said compounds for counteracting the biological effects of TNF-α.
In Vitro Study: Inhibition of LPS-Induced TNF-α Production From the Murine Cell Line WEHI-265
1) Cells (obtained from cell cultures containing ≤10^6 cells/ml) are suspended at 0.2×10^6 cells/ml in complete medium (RPMI1640, with 10% FCS, 10^-5 M 2-ME, 2 mM glutamine and 10 mM HEPES buffer) and plated in CoStar 24 well plates (1.0 ml/well).
2) Compounds are dissolved in the appropriate vehicle at 400 times the concentration to be tested, and 5 μl of compound is added to the wells.
3) LPS (from E. coli 0111:B4) is diluted to 6 μg/ml and 1.0 ml is added to wells.
4) Plates are incubated 20-24 hours in 37° C. CO2 incubator.
5) Supernatant fluids are collected and analyzed for TNF content as described in J. lmmunol., 142:3884.

Assay [1] has as its system LPS/Galactosamine-Induced Lethality. Description: In Vivo Study: Inhibition of LPS/Galactosamine-Induced Lethality. On the set-up: species or system Mice (C57BI/6J males). Particulars: 25 mg/kg orally or i.p. one hour before LPS (100 ng) and d-galactosamine (8 mg) i.p.; survival at 24 hours. The method, then:
This test procedure is a standard test used to determine activity against septic shock.
3. In Vivo Study: Inhibition of LPS/Galactosamine-Induced Lethality
Mice (C57BI/6J males, 6-8 weeks of age) are dosed with the indicated compound (dissolved in CMC suspension vehicle; compounds are given orally or i.p. one hour before challenge with LPS and d-galactosamine).
Mice are challenged i.p. with a mixture of LPS (from E. coli 0111:B4; 100 ng) and d-galactosamine (8 mg).
Survival is determined 24 hours after challenge. See procedure

In the next assay the test system is TNF. As to the kind of experiment: In Vivo Study: Inhibition of LPS-Induced Serum TNF. On the set-up: species or system Mice (C57BI/6J males). As to conditions: Mus musculus, 1.5 h; 25 mg/kg orally or i.p. one hour before LPS (50 μg i.p.); bled 90 min after LPS; serum TNF by ELISA. On the procedure: In addition to the in vitro test described above, the following in vivo test was also performed on several of the compounds of the present invention.
2. In Vivo Study: Inhibition of LPS-Induced Serum TNF
1) Mice (C57BI/6J males, 6-8 weeks of age) are dosed with the indicated compound (dissolved in CMC suspension vehicle; compounds are given orally or i.p. one hour before LPS challenge).
3) Mice are bled 90 min after LPS challenge.
4) Sera are analyzed for TNF content by ELISA as described in J. Immunol.
A general note: An ELISA detects its analyte on a solid surface through an enzyme-linked reagent.

Structures are written as SMILES.

Usually inhibition stands for how much of the control response was suppressed. Consider `C=CCC1(C2=CCNCC2)c2ccccc2CCc2ccccc21` [Compound IE, 4-[10,11-dihydro-5-(2-propenyl)-5H-dibenzo[a,d]cyclohepten-5-yl]-1,2,5,6-tetrahydro(1H)-pyridine], for which 10 µM produced 61% inhibition in the assay on TNF-α. Moreover, in assay [1], the “# DEAD/TOTAL AT 25 MG/KG” value is on record as 7/8.

Molecule `C=CCC1(C2=CCN(C(C)=O)CC2)c2ccccc2CCc2ccccc21` [Compound IG, 1-acetyl-4-[10,11-dihydro-5-(2-propenyl)-5H-dibenzo[a,d]cyclohepten-5-yl]-1,2,5,6-tetrahydro-1H-pyridine] had an inhibition at 10 µM in the assay with TNF-α of 27%.

The term inhibition in vivo denotes how much of the control response was suppressed. Higher therefore signals a strong effect. For the molecule `CC(C)=CCC1(C2=CCN(C)CC2)c2ccccc2CCc2ccccc21` [IQ], the inhibition at 10 µM in the assay with TNF-α was determined as 62%. The “# DEAD/TOTAL AT 25 MG/KG” value in assay [1] is on record as 4/10. For the same molecule, in the assay with TNF, the inhibition in vivo at 25 mg/kg is 28%.

For `CN1CCCC(C2c3ccccc3CCc3ccccc32)C1` (stereo not drawn) [Compound IR, 3-(10,11-dihydro-5H-dibenzo[a,d]cyclohepten-5-yl)-1-methyl-piperidine], the inhibition at 10 µM in the assay on TNF-α is 60%.

With `CCCC1(C2=CCN(C)CC2)c2ccccc2CCc2ccccc21` [Compound IF, 4-[10,11-dihydro-5-propyl-5H-dibenzo[a,d]cyclohepten-5-yl]-1-methyl-1,2,5,6-tetrahydropyridine], the inhibition at 10 µM in the assay with TNF-α was found to be 28%. Further, the “# DEAD/TOTAL AT 25 MG/KG” value in assay [1] is 5/8. The same molecule came in with an inhibition in vivo at 25 mg/kg with TNF of 50%.

As to `C=CCC1(C2=CCN(Cc3ccccc3)CC2)c2ccccc2CCc2ccccc21` [Compound IN, 4-[10,11-dihydro-5-(2-propenyl)-5H-dibenzo[a,d]cyclohepten-5-yl]-1-(phenylmethyl)-1,2,5,6-tetrahydro-1H-pyridine], the inhibition at 10 µM with TNF-α was found to be 25%. The “# DEAD/TOTAL AT 25 MG/KG” value in assay [1] was 10/10. The inhibition in vivo at 25 mg/kg with TNF turned out to be 42%.

In turn, `c1ccc2c(c1)CCc1ccccc1C2C1CCCNC1` (stereo not drawn) [Compound ID, 3-(10,11-dihydro-5H-dibenzo[a,d]cyclohepten-5-yl)-piperidine acetic acid] gave an inhibition at 10 µM with TNF-α of 51%.

In the assay on TNF-α, `C=CCC1(C2=CCN(C(=O)OCC)CC2)c2ccccc2CCc2ccccc21` [IC] registered an inhibition at 10 µM of 20%. For the same molecule, in assay [1], the “# DEAD/TOTAL AT 25 MG/KG” value was 4/8.

`CN1CCC(C2c3ccccc3CCc3ccccc32)CC1` [Compound K, reference compound] had an inhibition at 10 µM in the assay on TNF-α of 17%. For the same molecule, the “anti-TNF-α activity (in words)” value with TNF-α (general statement) was “has anti-TNF-α activity”. The “# DEAD/TOTAL AT 25 MG/KG” value in assay [1] was 0/10. Further, the inhibition in vivo at 25 mg/kg in the assay on TNF worked out at 82%.

As for `C=CCC1(C2=CCN(C)CC2)c2ccccc2C=Cc2ccccc21` [IH], in the assay with TNF-α, the inhibition at 10 µM came to 6%. The “# DEAD/TOTAL AT 25 MG/KG” value in assay [1] is listed as 4/9. The same molecule showed an inhibition in vivo at 25 mg/kg with TNF of 8%.

For `C[N+]1(C)CC=C(C2c3ccccc3CCc3ccccc32)CC1` [Compound IY, 4-(10,11-dihydro-5H-dibenzo[a,d]cyclohepten-5-yl)-1,1-dimethyl-1,2,5,6-tetrahydropyridinium iodide], the inhibition at 10 µM in the assay on TNF-α amounted to 12%.

For the molecule `C=CCC1(C2=CC[N+](C)(C)CC2)c2ccccc2CCc2ccccc21.[I-]` [Compound IM, 4-[10,11-dihydro-5-(2-propenyl)-5H-dibenzo[a,d]cyclohepten-5-yl]-1,1-dimethyl-1,2,5,6-tetrahydropyridinium iodide], in the assay with TNF-α, the inhibition at 10 µM was 8%. For the same molecule, in assay [1], the “# DEAD/TOTAL AT 25 MG/KG” value was 2/11. This molecule also had an inhibition in vivo at 25 mg/kg in the assay with TNF of 27%.

The molecule `CN1CC=C(C2(C)c3ccccc3CCc3ccccc32)CC1` [IS] yielded an inhibition at 10 µM with TNF-α of 61%. Besides, testing at 25 mg/kg in the assay on TNF gave an inhibition in vivo of 26%.

For the molecule `CN1CC=C(C2(Cc3ccccc3)c3ccccc3CCc3ccccc32)CC1` [IK], the inhibition at 10 µM in the assay on TNF-α is 61%. The “# DEAD/TOTAL AT 25 MG/KG” value in assay [1] was 5/9. The molecule further returned an inhibition in vivo at 25 mg/kg in the assay on TNF of 45%.

In the case of `C=CCC1(C2=CCN(C)CC2)c2ccccc2CCc2ccccc21` [Compound IB, 4-[10,11-dihydro-5-(2-propenyl)-5H-dibenzo[a,d]cyclohepten-5-yl]-1-methyl-1,2,5,6-tetrahydropyridine], the inhibition at 10 µM in the assay with TNF-α came to 70%. The “# DEAD/TOTAL AT 25 MG/KG” value in assay [1] is on record as 0/8. This molecule gave an inhibition in vivo at 25 mg/kg in the assay with TNF of 80%.

`CN1CC=C(C2c3ccccc3CCc3ccccc32)CC1` [Compound IL, 4-(10,11-dihydro-5H-dibenzo[a,d]cyclohepten-5-yl)-1-methyl-1,2,5,6-tetrahydropyridine]: 10 µM produced 23% inhibition with TNF-α. The “# DEAD/TOTAL AT 25 MG/KG” value in assay [1] is 1/9. The molecule further came in with an inhibition in vivo at 25 mg/kg in the assay on TNF of 58%.

The molecule `C=CCC1(C2=CCN(C(C)C)CC2)c2ccccc2CCc2ccccc21` [Compound IP] displayed an inhibition at 10 µM in the assay with TNF-α of 62%. In assay [1], the “# DEAD/TOTAL AT 25 MG/KG” value was 6/10. The molecule further yielded an inhibition in vivo at 25 mg/kg in the assay on TNF of 28%.

In the assay with TNF-α, `CC1(C2=CC[N+](C)(C)CC2)c2ccccc2CCc2ccccc21` [IT] came in with an inhibition at 10 µM of 9%. The same molecule returned an inhibition in vivo at 25 mg/kg in the assay on TNF of 3%.

Take `CCCC1(C2CCN(C)CC2)c2ccccc2CCc2ccccc21` [Compound IJ, 4-[10,11-dihydro-5-propyl-5H-dibenzo[a,d]cyclohepten-5-yl]-1-methylpiperidine]: in the assay with TNF-α, the inhibition at 10 µM came to 55%.

In the assay with TNF-α, `C=CCC1(C2=CCN(C)CC2)c2ccccc2CCc2cccnc21` (stereo not drawn) [IX] showed an inhibition at 10 µM of 38%. In addition, the “# DEAD/TOTAL AT 25 MG/KG” value in assay [1] was 9/9. For the same molecule, the inhibition in vivo at 25 mg/kg in the assay on TNF worked out at 56%.

`C=CCC1(C2=CCN(C)CC2)c2ccccc2CCc2ccc(Cl)cc21` (stereo not drawn) [IA] returned an inhibition at 10 µM in the assay on TNF-α of 80%.

Source of the values: patent publication US5688805A, “Tricyclic derivatives, compositions and methods of use” (Schering Corporation, priority 1995, dated 1997).
